Assay results: patent US10183927B2, “Crystalline forms of C21H22Cl2N4O2” (BIOMED VALLEY DISCOVERIES, INC., priority 2015, dated 2019)
Counter-ions that a name gives are not always drawn.

Test: Interconversion of solid forms as a function of relative humidity
Type: physicochemical
Protocol: A vessel containing 4-(5-Chloro-2-isopropylaminopyridin-4-yl)-1H-pyrrole-2-carboxylic acid [1-(3-chlorophenyl)-2-hydroxyethyl]amide Form A was purged with dry nitrogen and relative humidity was monitored. After about 73 minutes the relative humidity had decreased from 36.9% to 1.0%.

Row | Compound | solid form after purging with dry nitrogen (relative humidity decreased from 36.9% to 1.0% after about 73 minutes) | solid form upon sorption of water (sorption of water)
1 | CC(C)Nc1cc(-c2c[nH]c(C(=O)N[C@H](CO)c3cccc(Cl)c3)c2)c(Cl)cn1 [Form A, 4-(5-Chloro-2-isopropylaminopyridin-4-yl)-1H-pyrrole-2-carboxylic acid [1-(3-chlorophenyl)-2-hydroxyethyl]amide HCl hydrate] | determined to be a new form, designated Form D | –
2 | CC(C)Nc1cc(-c2c[nH]c(C(=O)N[C@H](CO)c3cccc(Cl)c3)c2)c(Cl)cn1 [Form D, 4-(5-Chloro-2-isopropylaminopyridin-4-yl)-1H-pyrrole-2-carboxylic acid [1-(3-chlorophenyl)-2-hydroxyethyl]amide HCl] | – | observed to be Form A
